The target of assay [1] is T1, HiBit-KRAS^G12C (Homo sapiens, UniProt P01116, G12C). Nature of the assay: HiBit degradation assay in MiaPaCa-2 HiBit-KRas^G12C cells. The format is cell-based. The conditions noted are these: 0.5% DMSO, 24 hours; for Dmax: MIA PaCa-2, MiaPaCa-2 HiBit-KRas^G12C cells, maximum degradation, read-out: KRas^G12C-HiBiT (MiaPaCa; 0.5% DMSO) DMax; for DC50: read-out: KRas^G12C-HiBiT (MiaPaCa; 0.5% DMSO) IC50, MiaPaCa-2 HiBit-KRas^G12C cells. As to the method: Reagents. SW1573 (CRL-2170) and MiaPaCa-2 (CRL-1420) cells were purchased from ATCC. Both cell lines are […] for the G12C mutation in KRAS. SW1573 cells were cultured in DMEM+F12+Glutamax (+Sodium Bicarbonate, +sodium pyruvate, Thermofisher scientific, #10565) supplemented with 10% FBS (Thermofisher scientific, #2060357) and 1% Antibiotic-Antimycotic (Thermofisher scientific, #15240096). MiaPaCa-2 cells were cultured in DMEM+Glutamax media (Thermofisher scientific, #10566) supplemented with 10% FBS (Thermofisher scientific, #2060357) and 1% Antibiotic-Antimycotic (Thermofisher scientific, #15240096). For degradation assays, 384 well plates were purchased from Corning (Corning® CellBIND® 384-well Flat Clear Bottom Black Polystyrene Microplates, Low Flange, #3770). Gambogic acid was purchased from Selleckchem (#S2448). Alamar blue was purchased from Thermofisher scientific (A50101) and used according to manufacturer instructions. The Nano-Glo® HiBit Lytic Detection System and Nano-Glo® HiBit Blotting System were purchased from Promega (#N3050 and #N2410) and used according to manufacturer instructions.
To create the MiaPaCa-2 HiBit-KRAS^G12C cell line, CRISPR-Cas9 was used to insert the HiBit tag onto the N-terminus of one or more of the four endogenous KRAS^G12C alleles. After knock-in of the tag, individual clones were isolated by single cell dilution and screened for HiBit insertion by PCR. Clones containing the HiBit tag were sequenced and one was identified that contained the desired HiBit-KRAS^G12C sequence at one allele while the remaining three KRAS^G12C alleles were unaffected. This line was used for all subsequent studies.
Either SW1573 HiBit-KRas^G12C or MiaPaCa-2 HiBit-KRas^G12C cells were plated at 9000 cells/well in a 384 well plate (Corning #3770). Exemplary heterobifunctional molecules and positive controls were diluted in the appropriate cell media and applied to the plated cells resulting in a final concentration titration of 10 μM to 20 nM in either 0.1% or 0.5% dimethyl sulfoxide (DMSO). Gambogic acid was used as a positive control for cytotoxicity and titrated from 10 μM to 78 nM. All assays were performed in triplicate. Cells were treated with compounds for 24 hours at 37° C. in an incubator containing 5% CO2. Following treatment, alamar blue was used to determine if any compounds led to a loss in cell viability after 24 hours. The 10× alamar blue reagent was added to a final concentration of 1× as recommended by the manufacturer and cells were returned to the incubator for 4 hours. Plates were then allowed to equilibrate to room temperature and fluorescence was measured using a Perkin-Elmer EnVision. After completion of the fluorescence read, the liquid from each well was removed and the cells were washed with PBS. The Nano-Glo® HiBiT detection reagent was prepared according to the manufacturer's instructions and added to each well after the PBS wash was removed. Following incubation at room temperature for 45 minutes, the luminescence was read using the ultra-sensitive luminescence aperture on the Envision instrument.
Fluorescence values from the alamar blue treatment were normalized to the DMSO only control for each compound titration. We hypothesized that compounds that led to a ≥50% loss in cell viability of the KRAS-independent SW1573 HiBit-KRas^G12C cells were likely generally cytotoxic and loss of HiBit-KRAS^G12C signal from these compounds may be due to lower cell number and not specific KRAS^G12C degradation. These points were therefore excluded from the data analysis for degradation. […]

Assay [2] deals with T1, HiBit-KRAS^G12C. Nature of the assay: HiBit degradation assay in SW1573 HiBit-KRas^G12C cells. As to conditions: 0.5% DMSO, 24 hours; for Dmax: SW1573, SW1573 HiBit-KRas^G12C, read-out: KRas^G12C-HiBiT (SW1573; 0.5% DMSO) Dmax**; for DC50: read-out: KRas^G12C-HiBiT (SW1573; 0.5% DMSO) IC50***, SW1573 HiBit-KRas^G12C. It counts as cell-based. On the set-up: expressed in transfected cells; host or cells: SW1573 (clone E6), modified pcDNA3.1 vector, TK promoter. Summed up: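 HiBit-KRAS G12C degradation was measured after a 24 h compound exposure (titrated 10 μM–20 nM) in engineered SW1573 cells. Lytic HiBit luminescence, expressed relative to DMSO controls, yielded DC50 and Dmax from 4-parameter fits. Concentrations causing ≥50% loss in alamar blue viability were omitted as cytotoxic.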

SMILES strings stand for the structures.

T1 sequence (P01116 1-186 isoform P01116-2 G12C limits assumed): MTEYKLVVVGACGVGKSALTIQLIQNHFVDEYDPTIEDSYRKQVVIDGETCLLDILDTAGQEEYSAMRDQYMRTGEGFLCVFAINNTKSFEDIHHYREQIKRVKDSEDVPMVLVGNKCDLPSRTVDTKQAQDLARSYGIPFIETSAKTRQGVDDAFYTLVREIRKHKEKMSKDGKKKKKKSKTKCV

With `C=C(F)C(=O)N1CCN(c2nc(OCCN3CCC4(CC3)CN(c3cc([C@H](C(=O)N5C[C@H](O)C[C@H]5C(=O)N[C@@H](C)c5ccc(-c6ccnn6C)cc5)C(C)C)on3)C4)nc3c(F)c(-c4cc(O)cc5ccccc45)c(Cl)cc23)C[C@@H]1CC#N` (atropisomer, axis not shown) [Compound 112, (2S,4R)-1-[(2R)-2-(3-{7-[2-({6-chloro-4-[(3S)-3-(cyanomethyl)-4-(2-fluoroprop-2-enoyl)piperazin-1-yl]-8-fluoro-7-(3-hydroxynaphthalen-1-yl)quinazolin-2-yl}oxy)ethyl]-2,7-diazaspiro[3.5]nonan-2-yl}-1,2-oxazol-5-yl)-3-methylbutanoyl]-4-hydroxy-N-[(1S)-1-[4-(1-methyl-1H-pyrazol-5-yl)phenyl]ethyl]pyrrolidine-2-carboxamide], at HiBit-KRAS^G12C [1], the Dmax is greater than 70% and the DC50 was in the range of 100 to 1000 nM. At HiBit-KRAS^G12C [2], the Dmax is greater than 70% and the DC50 lay in the range of 100 to 1000 nM.

As to `C=C(F)C(=O)N1CCN(c2nc(OCCN3CCC4(CC3)CN(c3cc([C@@H](C(=O)N5C[C@H](O)C[C@H]5C(=O)N[C@@H](C)c5ccc(-c6scnc6C)cc5)C(C)C)on3)C4)nc3c(F)c(-c4cc(O)cc5ccccc45)c(Cl)cc23)C[C@@H]1CC#N` (atropisomer, axis not shown) [Compound 113, (2S,4R)-1-[(2S)-2-(3-{7-[2-({6-chloro-4-[(3S)-3-(cyanomethyl)-4-(2-fluoroprop-2-enoyl)piperazin-1-yl]-8-fluoro-7-(3-hydroxynaphthalen-1-yl)quinazolin-2-yl}oxy)ethyl]-2,7-diazaspiro[3.5]nonan-2-yl}-1,2-oxazol-5-yl)-3-methylbutanoyl]-4-hydroxy-N-[(1S)-1-[4-(4-methyl-1,3-thiazol-5-yl)phenyl]ethyl]pyrrolidine-2-carboxamide], the DC50 on HiBit-KRAS^G12C [1] and on HiBit-KRAS^G12C [2] was greater than 1000 nM each time.

On to `C=CC(=O)N1CCN(c2nc(OCCN3CCC4(CC3)CN(c3cc([C@H](C(=O)N5C[C@H](O)C[C@H]5C(=O)N[C@@H](C)c5ccc(-c6ccnn6C)cc5)C(C)C)on3)C4)nc3c(F)c(-c4cc(O)cc5ccccc45)c(Cl)cc23)C[C@@H]1CC#N` (atropisomer, axis not shown) [Compound 116, (2S,4R)-1-[(2R)-2-(3-{7-[2-({6-chloro-4-[(3S)-3-(cyanomethyl)-4-(prop-2-enoyl)piperazin-1-yl]-8-fluoro-7-(3-hydroxynaphthalen-1-yl)quinazolin-2-yl}oxy)ethyl]-2,7-diazaspiro[3.5]nonan-2-yl}-1,2-oxazol-5-yl)-3-methylbutanoyl]-4-hydroxy-N-[(1S)-1-[4-(1-methyl-1H-pyrazol-5-yl)phenyl]ethyl]pyrrolidine-2-carboxamide], for which the Dmax at HiBit-KRAS^G12C [1] and on HiBit-KRAS^G12C [2] was greater than 70% each time. Also, the values for the DC50 on HiBit-KRAS^G12C [1] and at HiBit-KRAS^G12C [2] were 100 to 1000 nM and less than 100 nM, respectively.

With `C=C(F)C(=O)N1CCN(c2nc(OCCN3CCC(F)(COc4cc([C@H](C(=O)N5C[C@H](O)C[C@H]5C(=O)N[C@@H](C)c5ccc(-c6ccnn6C)cc5)C(C)C)on4)CC3)nc3c(F)c(-c4cc(O)cc5ccccc45)c(Cl)cc23)C[C@@H]1CC#N` (atropisomer, axis not shown) [Compound 117, (2S,4R)-1-[(2R)-2-[3-({1-[2-({6-chloro-4-[(3S)-3-(cyanomethyl)-4-(2-fluoroprop-2-enoyl)piperazin-1-yl]-8-fluoro-7-(3-hydroxynaphthalen-1-yl)quinazolin-2-yl}oxy)ethyl]-4-fluoropiperidin-4-yl}methoxy)-1,2-oxazol-5-yl]-3-methylbutanoyl]-4-hydroxy-N-[(1S)-1-[4-(1-methyl-1H-pyrazol-5-yl)phenyl]ethyl]pyrrolidine-2-carboxamide], at HiBit-KRAS^G12C [1], the Dmax was greater than 70% and the DC50 is less than 100 nM. Also, at HiBit-KRAS^G12C [2], the Dmax lay within 35 to 70% and the DC50 was less than 100 nM.

For `C=C(F)C(=O)N1CCN(c2nc(OCCN3CCC(F)(COc4cc([C@@H](C(=O)N5C[C@H](O)C[C@H]5C(=O)N[C@@H](C)c5ccc(-c6ccnn6C)cc5)C(C)C)on4)CC3)nc3c(F)c(-c4cc(O)cc5ccccc45)c(Cl)cc23)C[C@@H]1CC#N` (atropisomer, axis not shown) [Compound 118, (2S,4R)-1-[(2S)-2-[3-({1-[2-({6-chloro-4-[(3S)-3-(cyanomethyl)-4-(2-fluoroprop-2-enoyl)piperazin-1-yl]-8-fluoro-7-(3-hydroxynaphthalen-1-yl)quinazolin-2-yl}oxy)ethyl]-4-fluoropiperidin-4-yl}methoxy)-1,2-oxazol-5-yl]-3-methylbutanoyl]-4-hydroxy-N-[(1S)-1-[4-(1-methyl-1H-pyrazol-5-yl)phenyl]ethyl]pyrrolidine-2-carboxamide], the values for the DC50 at HiBit-KRAS^G12C [1] and on HiBit-KRAS^G12C [2] were greater than 1000 nM and 100 to 1000 nM, respectively.

Take `C=C(F)C(=O)N1CCN(c2nc(OCCN3CCC(F)(COc4cc([C@H](C(=O)N5C[C@H](O)C[C@H]5C(=O)N[C@@H](C)c5ccc(-c6scnc6C)cc5)C(C)C)on4)CC3)nc3c(F)c(-c4cc(O)cc5ccccc45)c(Cl)cc23)C[C@@H]1CC#N` (atropisomer, axis not shown) [Compound 121, (2S,4R)-1-[(2R)-2-[3-({1-[2-({6-chloro-4-[(3S)-3-(cyanomethyl)-4-(2-fluoroprop-2-enoyl)piperazin-1-yl]-8-fluoro-7-(3-hydroxynaphthalen-1-yl)quinazolin-2-yl}oxy)ethyl]-4-fluoropiperidin-4-yl}methoxy)-1,2-oxazol-5-yl]-3-methylbutanoyl]-4-hydroxy-N-[(1S)-1-[4-(4-methyl-1,3-thiazol-5-yl)phenyl]ethyl]pyrrolidine-2-carboxamide]: the Dmax was greater than 70% at HiBit-KRAS^G12C [1] and 35 to 70% at HiBit-KRAS^G12C [2]. For the same compound, the values for the DC50 on HiBit-KRAS^G12C [1] and on HiBit-KRAS^G12C [2] were 100 to 1000 nM and less than 100 nM, respectively.

For `C=C(F)C(=O)N1CCN(c2nc(OCCN3CCC(F)(COc4cc([C@@H](C(=O)N5C[C@H](O)C[C@H]5C(=O)N[C@@H](C)c5ccc(-c6scnc6C)cc5)C(C)C)on4)CC3)nc3c(F)c(-c4cc(O)cc5ccccc45)c(Cl)cc23)C[C@@H]1CC#N` (atropisomer, axis not shown) [Compound 122, (2S,4R)-1-[(2S)-2-[3-({1-[2-({6-chloro-4-[(3S)-3-(cyanomethyl)-4-(2-fluoroprop-2-enoyl)piperazin-1-yl]-8-fluoro-7-(3-hydroxynaphthalen-1-yl)quinazolin-2-yl}oxy)ethyl]-4-fluoropiperidin-4-yl}methoxy)-1,2-oxazol-5-yl]-3-methylbutanoyl]-4-hydroxy-N-[(1S)-1-[4-(4-methyl-1,3-thiazol-5-yl)phenyl]ethyl]pyrrolidine-2-carboxamide], the DC50 on HiBit-KRAS^G12C [1] and at HiBit-KRAS^G12C [2] was greater than 1000 nM throughout.

These data come from US20220370416A1, “COMPOUNDS AND METHODS FOR TARGETED DEGRADATION OF KRAS” (Arvinas Operations, Inc., priority 2020, published 2022).
